A short description of this data set: Injection site reactions in cattle. The conditions noted are these: injectable pharmaceutical compositions. The class given is in vivo. As to the method:
Cattle injected with injectable pharmaceutical compositions containing Compound (A) were evaluated for reactions at the injection site. These injection site reactions were compared to the injection site reactions of cattle injected with injectable pharmaceutical compositions containing Compounds (B) and (C). The compounds were formulated as aqueous solution injectable pharmaceutical compositions or as suspension injectable pharmaceutical compositions as indicated below. These formulations were prepared as described in Examples 1 and 2. Compound (A) was formulated as both an aqueous solution using the free base form of the compound and as a suspense using the dihydrochloride salt of the compound. The composition of the aqueous solution injectable pharmaceutical composition was 15% w/v of Compound A, 15% w/v Poloxamer […], 6% w/v Benzyl Alcohol, 7% w/v Citric Acid, and QS Water. The composition of the suspension injectable pharmaceutical composition was 15% w/v Compound A (17.5% w/v HCl salt of Compound A), 0.1% w/v Kolliphor HS 15 and QS Miglyol 812. Compound A was administered to the animals in a dose of 10 mg/kilogram of body weight. Compound (B) was formulated as both an aqueous solution using the free base form of the compound and as a suspense using the dihydrochloride salt of the compound. The composition of the aqueous solution injectable pharmaceutical composition was 15% w/v of Compound B, 15% w/v Poloxamer […], 6% w/v Benzyl Alcohol, 7% w/v Citric Acid, and QS Water. The composition of the suspension injectable pharmaceutical composition was 15% w/v Compound B (17.5% w/v HCl salt of Compound B), 0.1% w/v Kolliphor HS 15 and QS Miglyol 812. Compound A was administered to the animals in a dose of 10 mg/kilogram of body weight. Compound (C) was formulated as both an aqueous solution using the free base form of the compound. The composition of the aqueous solution injectable pharmaceutical composition was 10% w/v of Compound C, 15% w/v Poloxamer […], 6% w/v Benzyl Alcohol, 7% w/v Citric Acid, and QS Water. Compound A was administered to the animals in a dose of 10 mg/kilogram of body weight. Injection sites were examined clinically by a trained person, Size of the swelling is measured with a ruler to the closest 0.5 cm horizontally, vertical and depth. These three measured values were multiplied to an estimation of the volume of the square box surrounding the observed swelling.

For `COCCNCc1ccc(C#Cc2ccc(C(=O)N[C@H](C(=O)NO)C(C)(C)N)cc2)cc1` [Compound A], the “Injection site reactions, overall assessment” value is “minor injection reactions which were resolved by Day 6”. Besides, the “Injection site reactions, overall assessment” value (listed as Compound (A)) is listed as “tolerated at the injection site”.

(Values after patent publication US20250057790A1, “AN INJECTABLE PHARMACEUTICAL COMPOSITION FOR THE TREATMENT OF RESPIRATORY DISEASES IN ANIMALS” (priority 2021, published 2025).)
